The structures appear in SMILES notation.

As a reminder, the melting point is the temperature, or range, at which the solid turns liquid. `O=C(O)/C=C/c1ccc(COc2cc(-c3c(-c4ccccc4)cnc4c(C(F)(F)F)cccc34)ccc2Cl)cc1` registered a melting point of 257 °C. On to `Cc1ccccc1-c1cnc2c(C(F)(F)F)cccc2c1-c1cccc(NC(=O)Nc2ccccc2Cl)c1`, for which the melting point is 224 to 226 °C. Take `Cc1ccc(N(C)C(=O)c2cnc3c(C(F)(F)F)cccc3c2-c2ccccc2)cc1` [Example 380, N-METHYL-N-(4-METHYLPHENYL)-4-PHENYL-8-(TRIFLUOROMETHYL)QUINOLINE-3-CARBOXAMIDE]: the melting point was in the range of 143 to 145 °C.

`O=C(O)Cc1ccc(COc2cccc(-c3c(-c4ccccc4)cnc4c(C(F)(F)F)cccc34)c2)cc1` [Example 398, [4-({3-[3-PHENYL-8-(TRIFLUOROMETHYL)QUINOLIN-4-YL]PHENOXY}METHYL)PHENYL]ACETIC ACID] gave a melting point of 122 °C. For `O=C(Nc1ccccc1)Nc1cccc(-c2c(-c3ccccc3)cnc3c(C(F)(F)F)cccc23)c1` [Example 75, N-PHENYL-N′-{3-[3-PHENYL-8-(TRIFLUOROMETHYL)QUINOLIN-4-YL]PHENYL}UREA] the value was 202 to 205 °C; for `COc1cc(-c2c(-c3ccccc3)cnc3c(C(F)(F)F)cccc23)ccc1Cl` [Example 393, 4-(4-CHLORO-3-METHOXYPHENYL)-3-PHENYL-8-(TRIFLUOROMETHYL)QUINOLINE], 172 to 174 °C; for `O=C(Nc1cccc(Cl)c1)c1cnc2c(C(F)(F)F)cccc2c1-c1ccccc1` [Example 373, N-(3-CHLOROPHENYL)-4-PHENYL-8-(TRIFLUOROMETHYL)QUINOLINE-3-CARBOXAMIDE], 159 to 161 °C. Next, `Cc1ccc(NC(=O)c2cnc3c(C(F)(F)F)cccc3c2-c2ccccc2)cc1` [Example 368, N-(4-METHYLPHENYL)-4-PHENYL-8-(TRIFLUOROMETHYL)QUINOLINE-3-CARBOXAMIDE]: 203 to 205 °C; `Nc1cccc(-c2c(-c3ccccc3)cnc3c(C(F)(F)F)cccc23)c1` [Example 395, {3-[3-PHENYL-8-(TRIFLUOROMETHYL)QUINOLIN-4-YL]PHENYL}AMINE]: 163 to 165 °C. Next, `COc1ccccc1N(C)C(=O)c1cnc2c(C(F)(F)F)cccc2c1-c1ccccc1` [Example 387, N-(2-METHOXYPHENYL)-N-METHYL-4-PHENYL-8-(TRIFLUOROMETHYL)QUINOLINE-3-CARBOXAMIDE]: 138 °C; `CCc1cccc(N(C)C(=O)c2cnc3c(C(F)(F)F)cccc3c2-c2ccccc2)c1` [Example 386, N-(3-ETHYLPHENYL)-N-METHYL-4-PHENYL-8-(TRIFLUOROMETHYL)QUINOLINE-3-CARBOXAMIDE]: 144 to 146 °C. The compound `Cc1ccccc1-c1cnc2c(C(F)(F)F)cccc2c1-c1cccc(NC(=O)Nc2ccccc2)c1` showed a melting point of 192 to 195 °C.

In turn, `COC(=O)c1ccc(COc2cccc(-c3c(C(=O)c4ccccc4)cnc4c(C(F)(F)F)cccc34)c2)c(OC)c1` [Example 507, METHYL-4-({3-[3-BENZOYL-8-(TRIFLUOROMETHYL)QUINOLIN-4-YL]PHENOXY}METHYL)-3-METHOXYBENZOATE] returned a melting point of 60 to 63 °C. For `Oc1cccc(-c2c(-c3ccccc3F)cnc3c(C(F)(F)F)cccc23)c1` [Example 458, 3-[3-(2-FLUOROPHENYL)-8-(TRIFLUOROMETHYL)QUINOLIN-4-YL]PHENOL] the value was 186 to 187 °C; for `Cc1ccccc1-c1cnc2c(C(F)(F)F)cccc2c1-c1cccc(N)c1`, 148 to 151 °C. On to `COc1cc(C(=O)O)ccc1COc1cccc(-c2c(C(=O)c3ccccc3)cnc3c(C(F)(F)F)cccc23)c1` [Example 515, 4-({3-[3-BENZOYL-8-(TRIFLUOROMETHYL)QUINOLIN-4-YL]PHENOXY}METHYL)-3METHOXY-BENZOIC ACID], for which the melting point fell in the range of 100 to 110 °C.

Values taken from patent US7576215B2, “Quinolines and pharmaceutical compositions thereof” (Wyeth, priority 2003, dated 2009).
